{"source": "paper PMC4956724", "about": "“Assessing the reliability of uptake and elimination kinetics modelling approaches for estimating bioconcentration factors in the freshwater invertebrate, Gammarus pulex” (The Science of the Total Environment, 2016)", "key": {"G. pulex [1]": {"system": "G. pulex", "conditions": "in vivo"}, "G. pulex [2]": {"system": "G. pulex", "conditions": "in vivo; cited from earlier work"}, "Gammarus pulex": {"system": "Gammarus pulex", "experiment": "Toxicokinetic exposure (48 h uptake, 48 h depuration) of radio-labelled pharmaceuticals, first-order one-compartment model (OECD 305)", "conditions": "for BCF, Simultaneous BCF: kinetic BCF (k1/k2); for BCF, Simultaneous BCF / k1 (uptake rate constant), Simultaneous BCF / k2 (elimination rate constant), Simultaneous BCF: simultaneous method; for BCF, Sequential BCF a / BCF, Sequential BCF b: kinetic BCF; for k1 (uptake rate constant), Simultaneous BCF / k2 (elimination rate constant), Simultaneous BCF: 1 μg·L^− 1 (diclofenac, ibuprofen 10 μg·L^− 1), 15 °C, pH 8.2"}, "G. pulex exoskeleton": {"system": "G. pulex exoskeleton", "conditions": "both, Gammarus pulex, in vivo, pH 8.2"}, "[3]": {"experiment": "Control wells without G. pulex: loss of compound by sorption to the walls of culture plates", "assay_type": "physicochemical", "conditions": "control wells with exposure media only"}, "[4]": {"conditions": "sequential using curve fitting method"}, "[5]": {"conditions": "sequential using linear regression"}}, "note": "Read-outs that look alike come from different tables or passages of the source.", "data": [{"smiles": "CCCCCCCCn1sc(Cl)c(Cl)c1=O", "note": "[Sea nine]", "values": [{"measurement": "BCF, Sequential BCF", "setting": "G. pulex [1]", "result": 7696, "unit": "L kg^− 1"}, {"measurement": "BCF, Simultaneous BCF", "setting": "G. pulex [1]", "result": 2491, "unit": "L kg^− 1"}, {"measurement": "k1, Sequential BCF", "setting": "G. pulex [1]", "result": 950, "unit": "L kg^− 1 day^− 1"}, {"measurement": "k1, Simultaneous BCF", "setting": "G. pulex [1]", "result": 755, "unit": "L kg^− 1 day^− 1"}, {"measurement": "k2, Sequential BCF", "setting": "G. pulex [1]", "result": 0.123, "unit": "day^− 1"}, {"measurement": "k2, Simultaneous BCF", "setting": "G. pulex [1]", "result": 0.303, "unit": "day^− 1"}, {"measurement": "BAF", "setting": "G. pulex [2]", "result": 1732}]}, {"smiles": "CNC(=O)Oc1cccc2c1OC(C)(C)C2", "note": "[Carbofuran]", "values": [{"measurement": "BCF, Sequential BCF", "setting": "G. pulex [1]; Gammarus pulex", "result": 72, "unit": "L kg^− 1"}, {"measurement": "BCF, Simultaneous BCF", "setting": "G. pulex [1]; Gammarus pulex", "result": 68, "unit": "L kg^− 1"}, {"measurement": "k1, Sequential BCF", "setting": "G. pulex [1]; Gammarus pulex", "result": 10, "unit": "L kg^− 1 day^− 1"}, {"measurement": "k1, Simultaneous BCF", "setting": "G. pulex [1]; Gammarus pulex", "result": 10, "unit": "L kg^− 1 day^− 1"}, {"measurement": "k2, Sequential BCF", "setting": "G. pulex [1]; Gammarus pulex", "result": 0.140, "unit": "day^− 1"}, {"measurement": "k2, Simultaneous BCF", "setting": "G. pulex [1]; Gammarus pulex", "result": 0.146, "unit": "day^− 1"}, {"measurement": "BAF", "setting": "G. pulex [2]", "result": 65}]}, {"smiles": "Oc1ccc(Cl)cc1Cl", "note": "[2,4-Dichlorophenol]", "values": [{"measurement": "BCF, Sequential BCF", "setting": "G. pulex [1]; Gammarus pulex", "result": "72,728 L kg^− 1"}, {"measurement": "BCF, Simultaneous BCF", "setting": "G. pulex [1]; Gammarus pulex", "result": 9050, "unit": "L kg^− 1"}, {"measurement": "k1, Sequential BCF", "setting": "G. pulex [1]; Gammarus pulex", "result": 750, "unit": "L kg^− 1 day^− 1"}, {"measurement": "k1, Simultaneous BCF", "setting": "G. pulex [1]; Gammarus pulex", "result": 600, "unit": "L kg^− 1 day^− 1"}, {"measurement": "k2, Sequential BCF", "setting": "G. pulex [1]; Gammarus pulex", "result": 0.010, "unit": "day^− 1"}, {"measurement": "k2, Simultaneous BCF", "setting": "G. pulex [1]; Gammarus pulex", "result": 0.066, "unit": "day^− 1"}, {"measurement": "BAF", "setting": "G. pulex [2]", "result": 4466}]}, {"smiles": "COc1ccc(CC(C)NCC(O)c2ccc(O)c(NC=O)c2)cc1", "note": "(centres unmarked) [Formoterol, formoterol]", "values": [{"measurement": "BCF, Simultaneous BCF", "setting": "Gammarus pulex", "result": 14, "unit": "L kg^− 1"}, {"measurement": "BCF, Sequential BCF a", "setting": "Gammarus pulex; [4]", "result": 18, "unit": "L kg^− 1"}, {"measurement": "BCF, Sequential BCF b", "setting": "Gammarus pulex; [5]", "result": 33, "unit": "L kg^− 1"}, {"measurement": "k1, Sequential BCF a", "setting": "Gammarus pulex; [4]", "result": 0.451, "unit": "L kg^− 1 day^− 1"}, {"measurement": "k2, Sequential BCF a", "setting": "Gammarus pulex; [4]", "result": 0.025, "unit": "day^− 1"}, {"measurement": "k1, Sequential BCF b", "setting": "Gammarus pulex; [5]", "result": 0.357, "unit": "L kg^− 1 day^− 1"}, {"measurement": "k2, Sequential BCF b", "setting": "Gammarus pulex; [5]", "result": 0.011, "unit": "day^− 1"}, {"measurement": "k1 (uptake rate constant), Simultaneous BCF", "setting": "Gammarus pulex", "result": 0.408, "unit": "L kg^− 1 day^− 1"}, {"measurement": "k2 (elimination rate constant), Simultaneous BCF", "setting": "Gammarus pulex", "result": 0.029, "unit": "day^− 1"}]}, {"smiles": "O=[N+]([O-])c1ccc(CCl)cc1", "note": "[4-Nitrobenzyl chloride]", "values": [{"measurement": "BCF, Sequential BCF", "setting": "G. pulex [1]; Gammarus pulex", "result": 214, "unit": "L kg^− 1"}, {"measurement": "BCF, Simultaneous BCF", "setting": "G. pulex [1]; Gammarus pulex", "result": 147, "unit": "L kg^− 1"}, {"measurement": "k1, Sequential BCF", "setting": "G. pulex [1]; Gammarus pulex", "result": 259, "unit": "L kg^− 1 day^− 1"}, {"measurement": "k1, Simultaneous BCF", "setting": "G. pulex [1]; Gammarus pulex", "result": 666, "unit": "L kg^− 1 day^− 1"}, {"measurement": "k2, Sequential BCF", "setting": "G. pulex [1]; Gammarus pulex", "result": 1.212, "unit": "day^− 1"}, {"measurement": "k2, Simultaneous BCF", "setting": "G. pulex [1]; Gammarus pulex", "result": 4.540, "unit": "day^− 1"}, {"measurement": "BAF", "setting": "G. pulex [2]", "result": 185}]}, {"smiles": "Oc1cc(Cl)c(Cl)cc1Cl", "note": "[2,4,5-Trichlorophenol]", "values": [{"measurement": "BCF, Sequential BCF", "setting": "G. pulex [1]; Gammarus pulex", "result": 8327, "unit": "L kg^− 1"}, {"measurement": "BCF, Simultaneous BCF", "setting": "G. pulex [1]; Gammarus pulex", "result": 3729, "unit": "L kg^− 1"}, {"measurement": "k1, Sequential BCF", "setting": "G. pulex [1]; Gammarus pulex", "result": 1091, "unit": "L kg^− 1 day^− 1"}, {"measurement": "k1, Simultaneous BCF", "setting": "G. pulex [1]; Gammarus pulex", "result": 941, "unit": "L kg^− 1 day^− 1"}, {"measurement": "k2, Sequential BCF", "setting": "G. pulex [1]; Gammarus pulex", "result": 0.131, "unit": "day^− 1"}, {"measurement": "k2, Simultaneous BCF", "setting": "G. pulex [1]; Gammarus pulex", "result": 0.252, "unit": "day^− 1"}, {"measurement": "BAF", "setting": "G. pulex [2]", "result": 2635}]}, {"smiles": "CN(C)CCCN1c2ccccc2CCc2ccccc21", "note": "[Imipramine, imipramine]", "values": [{"measurement": "Maximum concentration sorbed to exoskeleton", "setting": "G. pulex exoskeleton", "result": 3, "unit": "%"}, {"measurement": "Mean Compound Mass per Animal", "setting": "G. pulex exoskeleton", "result": 1921, "unit": "pg"}, {"measurement": "Total Mass Compound on exoskeleton", "setting": "G. pulex exoskeleton", "result": "50 (n=2) pg"}, {"measurement": "increase in BCF, sequential versus simultaneous method", "setting": "Gammarus pulex; in vivo", "result": "> 10", "unit": "fold"}, {"measurement": "BCF, Simultaneous BCF", "setting": "Gammarus pulex", "result": 212, "unit": "L kg^− 1"}, {"measurement": "BCF, Sequential BCF a", "setting": "Gammarus pulex; [4]", "result": 3811, "unit": "L kg^− 1"}, {"measurement": "BCF, Sequential BCF b", "setting": "Gammarus pulex; [5]", "result": 4533, "unit": "L kg^− 1"}, {"measurement": "BCF on average between curve fitting and linear regression approaches", "setting": "Gammarus pulex; sequential method", "result": "~ 4200"}, {"measurement": "k1, Sequential BCF a", "setting": "Gammarus pulex; [4]", "result": 1.361, "unit": "L kg^− 1 day^− 1"}, {"measurement": "k1, Sequential BCF b", "setting": "Gammarus pulex; [5]", "result": 1.360, "unit": "L kg^− 1 day^− 1"}, {"measurement": "k1 (uptake rate constant), Simultaneous BCF", "setting": "Gammarus pulex", "result": 1.408, "unit": "L kg^− 1 day^− 1"}, {"measurement": "k2 (elimination rate constant), Simultaneous BCF", "setting": "Gammarus pulex", "result": 0.007, "unit": "day^− 1"}, {"measurement": "loss by sorption to walls of exposure well", "setting": "[3]; within 2 h", "result": 27, "unit": "%"}, {"measurement": "loss by sorption to walls of exposure well", "setting": "[3]; within 48 h", "result": 39, "unit": "%"}]}, {"smiles": "Nc1ccc(Cl)cc1Cl", "note": "[2,4-Dichloroaniline]", "values": [{"measurement": "BCF, Sequential BCF", "setting": "G. pulex [1]; Gammarus pulex", "result": 179, "unit": "L kg^− 1"}, {"measurement": "BCF, Simultaneous BCF", "setting": "G. pulex [1]; Gammarus pulex", "result": 50, "unit": "L kg^− 1"}, {"measurement": "k1, Sequential BCF", "setting": "G. pulex [1]; Gammarus pulex", "result": 70, "unit": "L kg^− 1 day^− 1"}, {"measurement": "k1, Simultaneous BCF", "setting": "G. pulex [1]; Gammarus pulex", "result": 140, "unit": "L kg^− 1 day^− 1"}, {"measurement": "k2, Sequential BCF", "setting": "G. pulex [1]; Gammarus pulex", "result": 0.392, "unit": "day^− 1"}, {"measurement": "k2, Simultaneous BCF", "setting": "G. pulex [1]; Gammarus pulex", "result": 2.830, "unit": "day^− 1"}, {"measurement": "BAF", "setting": "G. pulex [2]", "result": 56}]}, {"smiles": "Clc1cccc(Cl)c1Cl", "note": "[1,2,3-Trichlorobenzene]", "values": [{"measurement": "BCF, Sequential BCF", "setting": "G. pulex [1]; Gammarus pulex", "result": 351, "unit": "L kg^− 1"}, {"measurement": "BCF, Simultaneous BCF", "setting": "G. pulex [1]; Gammarus pulex", "result": 107, "unit": "L kg^− 1"}, {"measurement": "k1, Sequential BCF", "setting": "G. pulex [1]; Gammarus pulex", "result": 167, "unit": "L kg^− 1 day^− 1"}, {"measurement": "k1, Simultaneous BCF", "setting": "G. pulex [1]; Gammarus pulex", "result": 1142, "unit": "L kg^− 1 day^− 1"}, {"measurement": "k2, Sequential BCF", "setting": "G. pulex [1]; Gammarus pulex", "result": 0.475, "unit": "day^− 1"}, {"measurement": "k2, Simultaneous BCF", "setting": "G. pulex [1]; Gammarus pulex", "result": 10.648, "unit": "day^− 1"}, {"measurement": "BAF", "setting": "G. pulex [2]", "result": 191}]}, {"smiles": "CNC(=C[N+](=O)[O-])NCCSCc1ccc(CN(C)C)o1", "note": "[Ranitidine, ranitidine]", "values": [{"measurement": "Mean Compound Mass per Animal", "setting": "G. pulex exoskeleton", "result": 238, "unit": "pg"}, {"measurement": "Total Mass Compound on exoskeleton", "setting": "G. pulex exoskeleton", "result": "58 (n=1) pg"}]}]}
